Assay results taken from patent US7202265B2, “Indolinone combinatorial libraries and related products and methods for the treatment of disease” (Sugen, Inc., priority 1997, dated 2007).

The compounds below were run on human MET (assay: MET biochemical kinase assay).
Design: concentration or dose not given beside the values
Text: (d) MET Biochemical Kinase Assay
A met biochemical kinase assay may be performed for met generally as described above for other kinases by substituting that or the other kinases. In particular, ELISA plates are coated with goat anti-rabbit Fc antibodies, which are used to capture commercially available (from Santa Cruz Biotechnology) rabbit polyclonal antibodies to the cytoplasmic domain of human MET. […] The chimeric receptors, or MET, from these lysates are captured on the antibody coated plates. After washing away extraneous proteins, test compounds are added and an in vitro kinase assay is performed by addition of an appropriate kinase buffer (containing ATP, divalent metal ions, etc.). Incorporation of phosphate into the captured receptors is detected with an anti-phosphotyrosine antibody conjugate with horse radish peroxidase using TMB as a substrate for calorimetric detection.

Compound | Met Kinase % Inhibition
O=C1Nc2ccc(S(=O)(=O)Nc3ccc(C(F)(F)F)cc3)cc2C1=Cc1cc2c(cc1Cl)OCO2 [10727/E06] | −2.2%
COc1ccc(OC)c(C=C2C(=O)Nc3ccc(S(=O)(=O)Nc4ccc(C(F)(F)F)cc4)cc32)c1 [10728/E02] | 5.4%
CC(C)(C)c1cc(C=C2C(=O)Nc3c(Br)cc(Br)cc32)c(O)c(C(C)(C)C)c1 [10723/A11] | 60.0%
CCn1c2ccccc2c2cc(C=C3C(=O)Nc4ccc(S(=O)(=O)NC)cc43)ccc21 [10731/D02] | 8.7%
CC(C)(C)c1cc(C=C2C(=O)Nc3ccc(S(=O)(=O)Nc4ccc(C(F)(F)F)cc4)cc32)ccc1O [10721/E09] | 0.7%
O=C1Nc2ccc(S(=O)(=O)Nc3ccc(C(F)(F)F)cc3)cc2C1=Cc1cccc(Oc2ccccc2)c1 [10729/E06] | −0.7%
CNS(=O)(=O)c1ccc2c(c1)C(=Cc1cc(Br)cc(OC)c1O)C(=O)N2 [10733/D08] | 80.0%
O=C1Nc2ccc(S(=O)(=O)N3CCOCC3)cc2C1=Cc1ncc[nH]1 [10720/F11] | 1.6%
CNS(=O)(=O)c1ccc2c(c1)C(=Cc1cc(C)c(C)o1)C(=O)N2 [10730/D11] | 9.7%
CCCCN(CCCC)c1ccc(C=C2C(=O)Nc3c(Br)cc(Br)cc32)cc1 [10722/A10] | 79.0%
O=C1Nc2ccc(S(=O)(=O)Nc3ccc(C(F)(F)F)cc3)cc2C1=Cc1ccc(C(F)(F)F)cc1 [10722/E11] | 84.0%
COc1ccc(OC)c(C=C2C(=O)Nc3ccc(CCCl)cc32)c1 [10728/G02] | 7.1%
O=C1Nc2ccc(I)cc2C1=Cc1ccc(C(F)(F)F)cc1 [10722/B11] | 83.0%
CCc1cc(CC)c(C=C2C(=O)Nc3ccc(S(=O)(=O)NC)cc32)[nH]1 [10727/D03] | 24.0%
Cc1c(Br)ccc2c1C(=Cc1ccc(O)cc1O)C(=O)N2 [10723/C08] | 83.0%
CNS(=O)(=O)c1ccc2c(c1)C(=Cc1cc(Cl)cc(Br)c1O)C(=O)N2 [10727/D04] | 76.0%
O=C1Nc2ccc(CCCl)cc2C1=Cc1ccc([N+](=O)[O-])c(O)c1 [10724/G04] | 71.0%
COc1ccc(C=C2C(=O)Nc3ccc(S(=O)(=O)Nc4ccc(C(F)(F)F)cc4)cc32)c(OC)c1 [10719/E04] | 3.1%
O=C1Nc2ccc(CCCl)cc2C1=Cc1ccc(F)cc1C(F)(F)F [10719/G11] | 24.0%
O=C1Nc2ccc(CCCl)cc2C1=Cc1cccn1-c1ccc(Cl)cc1 [10724/G09] | −2.8%
O=C1Nc2ccc(CCCl)cc2C1=Cc1ccc(Cl)s1 [10721/G07] | 10.0%
COc1ccc(C=C2C(=O)Nc3ccc(CCCl)cc32)c(OC)c1 [10719/G04] | −8.2%
CCc1ccc(C=C2C(=O)Nc3ccc(S(=O)(=O)Nc4ccc(C(F)(F)F)cc4)cc32)o1 [10724/E10] | 84.0%
COc1c(C(C)C)cc(C=C2C(=O)Nc3ccc(S(=O)(=O)Nc4ccc(C(F)(F)F)cc4)cc32)cc1C(C)C [10732/E03] | 3.9%
Cc1c(Br)ccc2c1C(=Cc1ccc(N3CCOCC3)cc1)C(=O)N2 [10725/C08] | 28.0%
CC(C)(C)c1cc(C=C2C(=O)Nc3ccc(S(=O)(=O)Nc4ccc(C(F)(F)F)cc4)cc32)cc(Cl)c1OCc1ccccc1 [10732/E10] | 1.6%
COc1ccc(C=C2C(=O)Nc3ccc(S(=O)(=O)Nc4ccc(C(F)(F)F)cc4)cc32)cc1C(C)(C)C [10732/E05] | 2.2%
CNS(=O)(=O)c1ccc2c(c1)C(=Cc1ccc(Cl)s1)C(=O)N2 [10721/D07] | −6.8%
COc1ccc2[nH]cc(C=C3C(=O)Nc4ccc(CCCl)cc43)c2c1 [10731/G09] | 4.4%
O=C1Nc2ccc(CCCl)cc2C1=Cc1cccc(Oc2ccccc2)c1 [10729/G06] | 26.0%
